Row | SMILES | melting point
1 | O=C(O)C1=Cc2c(Cl)cc(Cl)cc2OC1C(F)(F)F (stereo not given) | 190 to 191 °C
2 | COC(=O)[C@H](O)[C@@H](NS(=O)(=O)c1ccc([N+](=O)[O-])cc1)c1ccccc1 | 187 to 189 °C
3 | N#Cc1cc(C(O)CNC2CCCC2)ccc1N (stereo not given) | 158 to 160 °C
4 | CCOc1ccc2c(c1)C(C)(c1ccccc1Cl)C(=O)N2S(=O)(=O)c1ccc(NC(=O)N(CC)CC)cc1OC (stereo not given) | 137 °C
5 | Cc1c(C(C)O)ssc1=S (stereo not given) | 79 to 80 °C
6 | CCCCCCCCCCCOc1ccc(C(=O)O)cc1OCCCCCCCCCCC | 98 to 101 °C
7 | COc1ccc(C2=NN(C3CCN(S(=O)(=O)N(C)C)CC3)C(=O)CC2)cc1OC | 103 to 106 °C
8 | CC(=O)OC1CSC(Oc2cncc(-c3cc4ccccc4s3)c2)C(OC(C)=O)C1OC(C)=O (stereo not given) | 168 °C
9 | O=[N+]([O-])c1cccc(/C=C/c2nc(C3CCC3)cs2)c1 | 78 to 80 °C
10 | Nc1nc(NCCCCCCNS(=O)(=O)c2cccc3ccccc23)nc2ccccc12 | 98 to 101 °C
11 | CSc1cc(Oc2cccc(C(F)(F)F)c2)nc(C(=O)NN)c1 | 149 to 151 °C
12 | CCCOC(Cc1ccc(OCCc2nc(-c3ccccc3)oc2C)c2ccccc12)C(=O)O (stereo not given) | 103 to 105 °C
13 | CCOC(=O)CCCCn1c(=O)[nH]c2ccsc2c1=O | 116 to 117 °C
14 | C=Cn1cc(C(=O)OCC)c(=O)c2cc(F)c(Cl)nc21 | 150 to 151 °C
15 | CN(C)CCNC(=O)N1CCN(c2ccc([N+](=O)[O-])cc2)CC1 | 115 to 120 °C
16 | COc1ccc(C(=O)NC2CCCCC2)c2c1OCC2C(=O)OCc1ccccc1 (stereo not given) | 178 to 179 °C
17 | CCCc1cc2nc(=O)[nH]n2c(C)n1 | 173 °C
18 | CCCCN1CCC(CNC(=O)c2cc(Cl)c(N)n3cc(C)nc23)CC1 | 188 to 191 °C
19 | CC(Cl)c1nc2c(C(F)(F)F)cccc2c(O)c1C(=O)Nc1nccs1 (stereo not given) | 190 to 192 °C
20 | CCOC(=O)CCCCC(NS(=O)(=O)c1ccccc1)c1ccc2ccccc2c1 (stereo not given) | 81 to 84 °C
21 | CC(C)(C)OC(=O)Nc1cc(N2CCOCC2)cc(C(F)(F)F)c1 | 146 to 148 °C
22 | Cc1ccc(S(=O)(=O)Nc2ccc([N+](=O)[O-])cc2C#N)cc1 | 166 to 167 °C
23 | CCCCn1cc([N+](=O)[O-])c(=O)c2cnc(-c3ccncc3)nc21 | 240 to 241 °C
24 | Cc1cccc(C)c1SC(CC(C)C)c1c(O)cc(-c2ccccc2)oc1=O (stereo not given) | 166 to 167 °C
25 | CCCCCCOc1ccc(-n2cc(C(=O)OCC)cn2)cc1C#N | 93 to 94 °C

Row | SMILES | melting point
26 | Cc1ccc(-c2cc(Br)c3[nH]c(=O)ccc3c2)c(C)n1 | 212 to 215 °C
27 | OCCCCCNc1nccc2cc3c(cc12)OCO3 | 132 to 134 °C
28 | CC(=O)OC1CCc2c(C3=C(c4cn(C)c5ccccc45)C(=O)OC3=O)c3ccccc3n2C1 (stereo not given) | 272 to 275 °C
29 | COC(=O)c1ccc(NCc2cc(S(C)(=O)=O)ccc2OCc2ccccc2)cc1 | 124 °C
30 | COc1ccccc1Nc1ncccc1[N+](=O)[O-] | 151 to 153 °C
31 | COc1cccc(-c2cc(=O)c3cccc(C(=O)Nc4ccc(CCCCN5CCc6cc(OC)c(OC)cc6C5)cc4)c3[nH]2)c1 | 116 °C
32 | Fc1cc(Cl)c2ccc(Cl)cc2n1 | 105 to 106 °C
33 | COc1ccccc1-c1cc(NC(=O)[C@H]2CCCNC2)ncn1 | 163 to 165 °C
34 | COc1ccc(CS(=O)(=O)c2cc3c(OC)cc(OC)cc3oc2=O)cc1 | 183 to 185 °C
35 | CS(=O)(=O)CC(=O)N[C@H]1CC[C@H](CCN2CCC(c3cccc4c3CCO4)CC2)CC1 | 211 °C
36 | COc1cc(Nc2c(C#N)cnc3cc(-c4cccc5ccccc45)ccc23)c(Cl)cc1Cl | 192 to 193 °C
37 | CNC(=N)Nc1c(Cl)cccc1Cl | 140 °C
38 | CC(C)(C)NC(=O)[C@@H]1CCCN1C(=O)[C@@H](O)[C@H](Cc1ccccc1)NC(=O)[C@H](CC(N)=O)NC(=O)COC1CCC(NC(=O)OCc2ccccc2)CC1 (stereo not given in full) | 109 to 114 °C
39 | O=c1ccn(-c2cccc(F)c2)nc1-c1ccnn1-c1ccccc1 | 170 to 171 °C
40 | CC(C)(C)c1ccc(/C=C/C(=O)Nc2ccc3c(c2)CCCC3)cc1 | 198 to 199 °C
41 | CC1(CS)C(=O)N2CCCC(C(=O)O)N2C1=O (stereo not given) | 209 to 211 °C
42 | OCC1(Cc2ccc(Cl)c(Cl)c2)CCNCC1 | 148 to 149 °C
43 | CC(C)(CC(=O)O)c1ccccc1SSc1ccccn1 | 122 to 125 °C
44 | CCNC(=O)Nc1cc(-c2sc(CC)nc2-c2cccc(C)c2)ccn1 | 160 to 162 °C
45 | COc1ccc(-n2nc(Sc3ccccc3)c(C)c(C#N)c2=O)cc1 | 179 to 180 °C
46 | CCc1cn(C2CC(O)C(CNC(=O)C(C)Oc3ccc(Cl)cc3Cl)O2)c(=O)[nH]c1=O (mixture of isomers) | 240 to 243 °C
47 | O=C(O)CN1C(=O)COc2cc(F)c([N+](=O)[O-])cc21 | 177 to 183 °C
48 | Cc1cc(CCCOc2c(C)cc(-c3noc(CC(F)(F)F)n3)cc2C)on1 | 84 to 85 °C
49 | Cc1nc(CC2CCN(c3ccc(F)cc3)CC2)nc(C(=O)NCC(=O)O)c1O | 104 to 105 °C
50 | CC(CCC(=O)O)C1CCC2C3C(O)CC4CC(NC(=O)CNC(=O)OC(C)(C)C)CCC4(C)C3CC(O)C12C (stereo not given) | 150 to 155 °C

Row | SMILES | melting point
51 | CC=Cc1cnc(C2=NC(C)(C(C)C)C(=O)N2)c(C(=O)O)c1 (stereo not given) | 175 to 176 °C
52 | N#Cc1ccc(C=NO)c(F)c1 | 179 to 182 °C
53 | Cc1ccn2c(Br)c(CCc3ccc4nc(N)sc4c3)nc2c1 | 233 to 236 °C
54 | CCCCCN1C(=O)C2(COc3cc4c(cc32)OCO4)c2cccnc21 (stereo not given) | 126 to 127 °C
55 | CCn1ccc2ncnc(Oc3ccc(NC(=O)Nc4cccc(C(F)(F)F)c4)c(Cl)c3)c21 | 172 to 176 °C
56 | CCCN(CCC)c1ccc(S(=O)(=O)N2CCCCC2=O)cc1 | 105 to 108 °C
57 | O=C(O)c1ccc(Cl)nc1NCc1ccncc1 | 217 to 220 °C
58 | CNC(=O)Oc1c(C)ccc2c1CC(C)C2(C)C (stereo not given) | 110 °C
59 | O=C(Nc1ccc(/C=C/CO)c(F)c1)OCc1ccccc1 | 105 to 106 °C
60 | Cn1c(C(F)(F)F)cc(=O)n(-c2c(F)cc(Cl)c3oc(CO)cc23)c1=O | 139 to 141 °C
61 | CC(=O)Nc1ccc(CCC(=O)O)cc1 | 127 to 138 °C
62 | CCOC(=O)c1c[nH]cc1-c1cccc(F)c1 | 120 to 122 °C
63 | CC(CC(=O)NCc1ccccc1)C(N)=O (stereo not given) | 127 to 129 °C
64 | Cc1cccc(I)c1C(=O)Nc1ccccc1[N+](=O)[O-] | 115 °C
65 | O=C(O)C1=Cc2ccc(OCc3ccccc3)cc2CC1 | 202 to 205 °C
66 | CCOC(=O)Cc1cn(Cc2ccccc2)nc1OCc1ccc(OCc2nc(-c3ccccc3)oc2C)c(OC)c1 | 86 to 87 °C
67 | COc1ccc2c(c1)CCC1C2CCC2(C)C(NCc3cccs3)CCC12 (stereo not given) | 85.5 to 85.9 °C
68 | CC(=O)O[C@@H]1CC(c2ccccc2)(c2ccccc2)[C@@H]2CN(Cc3ccccc3)C[C@@H]2C1=O (racemic) | < 40 °C
69 | CS(=O)(=S)OCCCCC(=O)O (stereo not given) | 61 to 62.5 °C
70 | COc1ccc(C=CC(=O)C=Cc2ccc(OC)c(OC)c2)cc1OC | 68 to 70 °C
71 | COc1nc(N)nc2c1ncn2COC(CO)CO | 162 to 163 °C
72 | CC(C)(C)c1cc2c(c(C(=O)Nc3ccc(S(=O)(=O)C(F)(F)F)cc3Cl)c1O)CCO2 | 201 to 202 °C
73 | COc1ccnc(CCc2nc3cc(-c4ccc(S(=O)(=O)N5CCNC(=O)CC5)cc4)cnc3[nH]2)c1 | 230 to 232 °C
74 | COc1ccc(-c2cnc3cc4cnn(C(C)=O)c4cc3n2)cc1F | 261 to 265 °C
75 | CC(=O)c1cc(N2CCOCC2)ccc1NC(=O)c1ccc(OCc2ccccc2)cc1 | 172 to 175 °C

Row | SMILES | melting point
76 | ClCc1cnoc1-c1cc(Cl)c(Cl)s1 | 60 to 61 °C
77 | Cc1c(Oc2ccccc2)cccc1Oc1ccccc1 | 39 to 41 °C
78 | Cc1ccccc1C(CCC(=O)O)Oc1cc(OCc2ccsc2)ccc1C(=O)C=Cc1ccccn1 (racemic) | 65 to 70 °C
79 | Cc1ccc(S(=O)(=O)OCC2Cc3cccc(-c4c(Cl)cccc4Cl)c3O2)cc1 (stereo not given) | 178 to 180 °C
80 | COc1ccc2sc(C(N)=O)c(SCCN3CCOCC3)c2c1 | 158 to 160 °C
81 | CCOC(=O)C=C(c1ccc(Br)s1)c1ccc(Br)s1 | 69 to 70 °C
82 | COc1ncc(Nc2nc(N3CCOCC3)nc(-n3c(C(F)F)nc4c(OC)cccc43)n2)cn1 | 255 to 258 °C
83 | CC#CCOc1ccc(S(=O)(=O)N[C@H]2CCCC[C@H]2C(=O)NO)cc1 | 140 to 145 °C
84 | CSc1cc(-c2ccccc2)nc(-c2cccc(CCl)c2)c1 | 56.8 °C
85 | Cc1nc2ccc3c(c2o1)C(=CC#N)CC3 | 180 to 182 °C
86 | Cc1ccc(CCCCOCCCCCCNCC(O)c2ccc3c(n2)COC(c2ccccc2)O3)cc1 (stereo not given) | 74 °C
87 | COc1cc(NC2=NCC3(CN4CCC3CC4)O2)ncn1 (stereo not given) | 80 to 85 °C
88 | NC(C=Cc1ccccc1)=NO | 85 to 87 °C
89 | CCCCCCCCCCCCCCc1onc(C(=O)OC)c1O | 92 °C
90 | CCC(=O)Nc1ccc(C(=O)C=CN(C)C)cc1 | 161 to 163 °C
91 | O=C(c1cccc(C(F)(F)F)c1)c1cc2c(Br)cccc2o1 | 91 to 92 °C
92 | Nc1nc2ccccc2n1-c1cccc(-n2c(N)nc3ccccc32)c1 | 270 °C
93 | C[C@]12CCC(=O)N[C@@H]1CCc1cc(SCc3ccccc3)ccc12 | 172 to 174 °C
94 | CCCCNc1cccc(-c2ccnc3c(C(=O)c4cccs4)cnn23)c1 | 87 to 91 °C
95 | CC(S)C(=O)NCc1noc(C(C)c2ccc(-c3ccccc3)c(F)c2)n1 (stereo not given) | 94 to 95 °C
96 | CCOc1ccc(CC2NCCc3cc(OC(C)C)c(OC(C)C)cc32)cc1OCC (stereo not given) | 76 to 80 °C
97 | N=C(NC(=O)OCc1ccccc1)N(C(=O)OCc1ccccc1)C1CCC(CCN2CCN(c3ccccc3)CC2)CC1 (stereo not given) | 136 to 137 °C
98 | CNC(=O)c1ccccc1Nc1nc(Nc2ccc3c(c2OC)CCCC(=O)N3CCOC)ncc1Cl | 205 to 207 °C
99 | CCOC(=O)C(=CC=C(SC)C(=O)c1ccc(N2CCCCC2)cc1)N(C)C | 113 °C
100 | CCCCCC(C)C(C)c1cc(O)c2c(c1)OC(C)(C)C1=C2CN(CC(=O)O)CC1 (stereo not given) | 192 to 195 °C

— a melting point compilation (Tetko et al.; mined from patent text by program, amines drawn as free bases though some values may be those of a salt)
